ChEMBL document CHEMBL4507329, “Data for DCP probe BTZO-1” (2021)

Legend:
[1] = test system: Tyrosine-protein kinase ABL1 (Homo sapiens), P00519 [Y253F]; settings: Compound concentration 1000.0 nM
[2] = biological target: ALK tyrosine kinase receptor (Homo sapiens) (UniProt Q9UM73); settings: Compound concentration 1000.0 nM
[3] = biological target: 5'-AMP-activated protein kinase catalytic subunit alpha-1 (Homo sapiens) (UniProt Q13131); settings: Compound concentration 1000.0 nM
[4] = biological target: NUAK family SNF1-like kinase 1 (Homo sapiens) (UniProt O60285); settings: Compound concentration 1000.0 nM
[5] = biological target: Bone morphogenetic protein receptor type-1A (Homo sapiens) (UniProt P36894); settings: Compound concentration 1000.0 nM
[6] = biological target: Cyclin-dependent kinase 11A (Homo sapiens) (UniProt Q9UQ88); settings: Compound concentration 1000.0 nM
[7] = biological target: Cyclin-dependent kinase 3 (Homo sapiens) (UniProt Q00526); settings: Compound concentration 1000.0 nM
[8] = biological target: Dual specificity protein kinase CLK1 (Homo sapiens) (UniProt P49759); settings: Compound concentration 1000.0 nM
[9] = biological target: Casein kinase I isoform gamma-2 (Homo sapiens) (UniProt P78368); settings: Compound concentration 1000.0 nM
[10] = biological target: Casein kinase I isoform gamma-3 (Homo sapiens) (UniProt Q9Y6M4); settings: Compound concentration 1000.0 nM
[11] = biological target: Dual specificity tyrosine-phosphorylation-regulated kinase 1B (Homo sapiens) (UniProt Q9Y463); settings: Compound concentration 1000.0 nM
[12] = biological target: Ephrin type-B receptor 2 (Homo sapiens) (UniProt P29323); settings: Compound concentration 1000.0 nM
[13] = biological target: Ephrin type-B receptor 6 (Homo sapiens) (UniProt O15197); settings: Compound concentration 1000.0 nM
[14] = biological target: Receptor tyrosine-protein kinase erbB-4 (Homo sapiens) (UniProt Q15303); settings: Compound concentration 1000.0 nM
[15] = biological target: Receptor-type tyrosine-protein kinase FLT3 (Homo sapiens) (UniProt P36888); settings: Compound concentration 1000.0 nM
[16] = biological target: Glycogen synthase kinase-3 alpha (Homo sapiens) (UniProt P49840); settings: Compound concentration 1000.0 nM
[17] = biological target: Serine/threonine-protein kinase haspin (Homo sapiens) (UniProt Q8TF76); settings: Compound concentration 1000.0 nM
[18] = biological target: Homeodomain-interacting protein kinase 2 (Homo sapiens) (UniProt Q9H2X6); settings: Compound concentration 1000.0 nM
[19] = biological target: Serine/threonine-protein kinase ICK (Homo sapiens) (UniProt Q9UPZ9); settings: Compound concentration 1000.0 nM
[20] = biological target: Inhibitor of nuclear factor kappa-B kinase subunit alpha (Homo sapiens) (UniProt O15111); settings: Compound concentration 1000.0 nM
[21] = biological target: Insulin receptor (Homo sapiens) (UniProt P06213); settings: Compound concentration 1000.0 nM
[22] = test system: Mast/stem cell growth factor receptor Kit (Homo sapiens), P10721 [D816H]; settings: Compound concentration 1000.0 nM
[23] = biological target: Mitogen-activated protein kinase kinase kinase kinase 3 (Homo sapiens) (UniProt Q8IVH8); settings: Compound concentration 1000.0 nM
[24] = biological target: Maternal embryonic leucine zipper kinase (Homo sapiens) (UniProt Q14680); settings: Compound concentration 1000.0 nM
[25] = biological target: Misshapen-like kinase 1 (Homo sapiens) (UniProt Q8N4C8); settings: Compound concentration 1000.0 nM
[26] = biological target: MAP kinase-interacting serine/threonine-protein kinase 1 (Homo sapiens) (UniProt Q9BUB5); settings: Compound concentration 1000.0 nM
[27] = biological target: Serine/threonine-protein kinase MRCK alpha (Homo sapiens) (UniProt Q5VT25); settings: Compound concentration 1000.0 nM
[28] = biological target: Macrophage-stimulating protein receptor (Homo sapiens) (UniProt Q04912); settings: Compound concentration 1000.0 nM
[29] = biological target: Serine/threonine-protein kinase 3 (Homo sapiens) (UniProt Q13188); settings: Compound concentration 1000.0 nM
[30] = biological target: Muscle, skeletal receptor tyrosine-protein kinase (Homo sapiens) (UniProt O15146); settings: Compound concentration 1000.0 nM
[31] = biological target: Serine/threonine-protein kinase PAK 3 (Homo sapiens) (UniProt O75914); settings: Compound concentration 1000.0 nM
[32] = biological target: Serine/threonine-protein kinase PAK 4 (Homo sapiens) (UniProt O96013); settings: Compound concentration 1000.0 nM
[33] = test system: Phosphatidylinositol 4,5-bisphosphate 3-kinase catalytic subunit alpha isoform (Homo sapiens), P42336 [H1047Y]; settings: Compound concentration 1000.0 nM
[34] = biological target: Phosphatidylinositol 4,5-bisphosphate 3-kinase catalytic subunit beta isoform (Homo sapiens) (UniProt P42338); settings: Compound concentration 1000.0 nM
[35] = biological target: Phosphatidylinositol 4,5-bisphosphate 3-kinase catalytic subunit delta isoform (Homo sapiens) (UniProt O00329); settings: Compound concentration 1000.0 nM
[36] = biological target: Phosphatidylinositol 5-phosphate 4-kinase type-2 gamma (Homo sapiens) (UniProt Q8TBX8); settings: Compound concentration 1000.0 nM
[37] = biological target: Serine/threonine-protein kinase PLK1 (Homo sapiens) (UniProt P53350); settings: Compound concentration 1000.0 nM
[38] = biological target: Receptor-interacting serine/threonine-protein kinase 1 (Homo sapiens) (UniProt Q13546); settings: Compound concentration 1000.0 nM
[39] = biological target: Tyrosine-protein kinase SYK (Homo sapiens) (UniProt P43405); settings: Compound concentration 1000.0 nM
[40] = biological target: Mitogen-activated protein kinase kinase kinase 7 (Homo sapiens) (UniProt O43318); settings: Compound concentration 1000.0 nM
[41] = biological target: Angiopoietin-1 receptor (Homo sapiens) (UniProt Q02763); settings: Compound concentration 1000.0 nM
[42] = biological target: Non-receptor tyrosine-protein kinase TYK2 (Homo sapiens) (UniProt P29597); settings: Compound concentration 1000.0 nM
[43] = biological target: Mitogen-activated protein kinase kinase kinase 20 (Homo sapiens) (UniProt Q9NYL2); settings: Compound concentration 1000.0 nM
[44] = biological target: Sodium-dependent noradrenaline transporter (Homo sapiens) (UniProt P23975); settings: Compound concentration 10.0 uM
[45] = biological target: Sodium-dependent dopamine transporter (Homo sapiens) (UniProt Q01959); settings: Compound concentration 10.0 uM

Sequence of Bone morphogenetic protein receptor type-1A (Homo sapiens) (P36894 whole entry): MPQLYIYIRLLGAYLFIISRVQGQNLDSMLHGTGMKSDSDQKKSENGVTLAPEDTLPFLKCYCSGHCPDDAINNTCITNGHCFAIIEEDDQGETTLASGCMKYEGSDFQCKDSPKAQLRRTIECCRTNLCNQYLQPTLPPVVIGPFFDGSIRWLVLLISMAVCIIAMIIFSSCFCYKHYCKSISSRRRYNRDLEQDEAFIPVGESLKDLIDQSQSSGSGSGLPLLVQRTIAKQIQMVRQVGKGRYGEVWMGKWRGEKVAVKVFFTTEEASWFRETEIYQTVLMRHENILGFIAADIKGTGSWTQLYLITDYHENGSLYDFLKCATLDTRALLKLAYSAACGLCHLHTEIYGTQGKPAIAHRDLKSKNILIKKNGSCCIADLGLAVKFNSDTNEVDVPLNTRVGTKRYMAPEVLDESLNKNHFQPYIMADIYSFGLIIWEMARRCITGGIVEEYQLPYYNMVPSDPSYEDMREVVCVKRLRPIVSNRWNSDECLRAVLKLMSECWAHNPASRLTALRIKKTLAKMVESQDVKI
Sequence of Phosphatidylinositol 4,5-bisphosphate 3-kinase catalytic subunit alpha isoform (Homo sapiens), P42336 [H1047Y] (P42336 whole entry H1047Y, canonical isoform): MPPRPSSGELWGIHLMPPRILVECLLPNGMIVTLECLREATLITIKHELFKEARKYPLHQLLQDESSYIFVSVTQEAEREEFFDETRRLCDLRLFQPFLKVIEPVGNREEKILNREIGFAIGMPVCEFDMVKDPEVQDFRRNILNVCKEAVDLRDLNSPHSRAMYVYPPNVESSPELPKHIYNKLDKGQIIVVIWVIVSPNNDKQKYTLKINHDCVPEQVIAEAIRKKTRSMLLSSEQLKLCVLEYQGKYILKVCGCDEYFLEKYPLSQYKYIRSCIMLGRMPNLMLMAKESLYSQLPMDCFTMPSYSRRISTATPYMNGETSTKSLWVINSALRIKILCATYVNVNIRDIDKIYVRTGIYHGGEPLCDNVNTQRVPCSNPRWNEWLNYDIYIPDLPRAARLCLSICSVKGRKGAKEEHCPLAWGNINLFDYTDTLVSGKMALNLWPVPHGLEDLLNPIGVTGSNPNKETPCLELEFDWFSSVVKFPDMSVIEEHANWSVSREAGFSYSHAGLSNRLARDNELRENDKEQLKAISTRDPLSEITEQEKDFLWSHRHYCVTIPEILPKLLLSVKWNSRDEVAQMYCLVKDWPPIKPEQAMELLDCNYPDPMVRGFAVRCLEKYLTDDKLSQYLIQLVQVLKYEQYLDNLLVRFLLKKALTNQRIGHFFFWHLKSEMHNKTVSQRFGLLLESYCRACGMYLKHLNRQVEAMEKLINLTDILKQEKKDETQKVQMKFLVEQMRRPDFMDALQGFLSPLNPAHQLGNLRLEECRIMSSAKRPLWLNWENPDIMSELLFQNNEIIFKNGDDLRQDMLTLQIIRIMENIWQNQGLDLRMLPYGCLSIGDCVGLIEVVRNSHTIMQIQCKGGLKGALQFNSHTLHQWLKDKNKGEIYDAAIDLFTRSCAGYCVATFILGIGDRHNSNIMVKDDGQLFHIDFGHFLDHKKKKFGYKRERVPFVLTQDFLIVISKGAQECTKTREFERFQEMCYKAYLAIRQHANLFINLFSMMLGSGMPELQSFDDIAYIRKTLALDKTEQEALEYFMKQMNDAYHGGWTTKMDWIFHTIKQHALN
Sequence of MAP kinase-interacting serine/threonine-protein kinase 1 (Homo sapiens) (Q9BUB5 whole entry, looked up): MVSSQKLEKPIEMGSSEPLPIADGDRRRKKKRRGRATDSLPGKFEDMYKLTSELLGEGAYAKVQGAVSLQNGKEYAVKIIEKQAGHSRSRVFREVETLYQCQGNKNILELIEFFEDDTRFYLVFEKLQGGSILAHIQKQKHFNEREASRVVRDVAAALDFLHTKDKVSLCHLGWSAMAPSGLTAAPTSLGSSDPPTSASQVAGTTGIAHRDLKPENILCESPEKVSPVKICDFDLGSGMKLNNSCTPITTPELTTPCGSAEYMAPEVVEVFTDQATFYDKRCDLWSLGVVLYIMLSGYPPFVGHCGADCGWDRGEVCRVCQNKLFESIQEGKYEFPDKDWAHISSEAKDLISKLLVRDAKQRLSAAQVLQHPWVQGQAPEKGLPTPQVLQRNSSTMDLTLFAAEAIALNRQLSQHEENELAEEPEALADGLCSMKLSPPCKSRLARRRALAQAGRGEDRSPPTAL
Sequence of ALK tyrosine kinase receptor (Homo sapiens) (Q9UM73 19-1620 limits assumed): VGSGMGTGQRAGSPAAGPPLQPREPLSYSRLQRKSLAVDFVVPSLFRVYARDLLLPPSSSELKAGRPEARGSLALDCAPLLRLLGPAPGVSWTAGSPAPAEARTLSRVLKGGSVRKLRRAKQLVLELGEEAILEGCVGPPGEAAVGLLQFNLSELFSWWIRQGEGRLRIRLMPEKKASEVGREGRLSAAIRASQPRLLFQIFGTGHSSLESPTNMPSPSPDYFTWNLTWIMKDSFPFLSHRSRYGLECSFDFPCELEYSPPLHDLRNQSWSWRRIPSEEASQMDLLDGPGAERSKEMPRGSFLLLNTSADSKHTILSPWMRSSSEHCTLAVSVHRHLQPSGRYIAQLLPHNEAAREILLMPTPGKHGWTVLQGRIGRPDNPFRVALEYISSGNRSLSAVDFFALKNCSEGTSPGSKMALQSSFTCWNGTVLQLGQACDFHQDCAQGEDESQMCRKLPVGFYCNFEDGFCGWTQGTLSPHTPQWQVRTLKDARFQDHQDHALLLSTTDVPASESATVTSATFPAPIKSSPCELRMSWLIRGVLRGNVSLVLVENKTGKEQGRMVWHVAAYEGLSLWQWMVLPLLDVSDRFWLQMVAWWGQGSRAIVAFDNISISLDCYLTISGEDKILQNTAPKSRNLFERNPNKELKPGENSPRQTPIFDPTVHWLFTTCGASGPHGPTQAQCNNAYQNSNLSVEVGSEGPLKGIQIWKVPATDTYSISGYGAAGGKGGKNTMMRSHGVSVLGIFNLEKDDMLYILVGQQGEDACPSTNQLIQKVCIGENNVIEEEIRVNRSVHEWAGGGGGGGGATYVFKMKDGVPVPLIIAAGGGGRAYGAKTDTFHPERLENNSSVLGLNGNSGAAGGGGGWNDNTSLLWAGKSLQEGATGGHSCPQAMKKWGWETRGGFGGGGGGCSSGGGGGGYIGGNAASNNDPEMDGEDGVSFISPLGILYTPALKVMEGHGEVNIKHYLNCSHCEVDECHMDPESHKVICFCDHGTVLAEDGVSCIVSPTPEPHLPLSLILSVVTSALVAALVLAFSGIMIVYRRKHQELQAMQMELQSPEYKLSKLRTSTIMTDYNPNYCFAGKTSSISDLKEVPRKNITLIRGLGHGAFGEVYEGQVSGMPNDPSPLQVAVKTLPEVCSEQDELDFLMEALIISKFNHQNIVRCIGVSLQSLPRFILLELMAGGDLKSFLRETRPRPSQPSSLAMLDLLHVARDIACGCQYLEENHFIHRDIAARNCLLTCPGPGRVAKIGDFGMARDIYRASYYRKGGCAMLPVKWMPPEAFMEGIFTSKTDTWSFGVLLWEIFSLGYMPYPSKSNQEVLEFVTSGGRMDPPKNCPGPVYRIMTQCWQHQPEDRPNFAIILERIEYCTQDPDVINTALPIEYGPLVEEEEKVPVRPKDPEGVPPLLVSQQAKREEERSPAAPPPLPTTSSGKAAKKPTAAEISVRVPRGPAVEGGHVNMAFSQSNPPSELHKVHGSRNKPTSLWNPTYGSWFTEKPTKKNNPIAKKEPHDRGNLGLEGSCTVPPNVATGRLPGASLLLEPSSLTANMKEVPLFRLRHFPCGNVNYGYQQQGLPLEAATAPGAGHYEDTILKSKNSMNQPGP
Sequence of Receptor tyrosine-protein kinase erbB-4 (Homo sapiens) (Q15303 whole entry): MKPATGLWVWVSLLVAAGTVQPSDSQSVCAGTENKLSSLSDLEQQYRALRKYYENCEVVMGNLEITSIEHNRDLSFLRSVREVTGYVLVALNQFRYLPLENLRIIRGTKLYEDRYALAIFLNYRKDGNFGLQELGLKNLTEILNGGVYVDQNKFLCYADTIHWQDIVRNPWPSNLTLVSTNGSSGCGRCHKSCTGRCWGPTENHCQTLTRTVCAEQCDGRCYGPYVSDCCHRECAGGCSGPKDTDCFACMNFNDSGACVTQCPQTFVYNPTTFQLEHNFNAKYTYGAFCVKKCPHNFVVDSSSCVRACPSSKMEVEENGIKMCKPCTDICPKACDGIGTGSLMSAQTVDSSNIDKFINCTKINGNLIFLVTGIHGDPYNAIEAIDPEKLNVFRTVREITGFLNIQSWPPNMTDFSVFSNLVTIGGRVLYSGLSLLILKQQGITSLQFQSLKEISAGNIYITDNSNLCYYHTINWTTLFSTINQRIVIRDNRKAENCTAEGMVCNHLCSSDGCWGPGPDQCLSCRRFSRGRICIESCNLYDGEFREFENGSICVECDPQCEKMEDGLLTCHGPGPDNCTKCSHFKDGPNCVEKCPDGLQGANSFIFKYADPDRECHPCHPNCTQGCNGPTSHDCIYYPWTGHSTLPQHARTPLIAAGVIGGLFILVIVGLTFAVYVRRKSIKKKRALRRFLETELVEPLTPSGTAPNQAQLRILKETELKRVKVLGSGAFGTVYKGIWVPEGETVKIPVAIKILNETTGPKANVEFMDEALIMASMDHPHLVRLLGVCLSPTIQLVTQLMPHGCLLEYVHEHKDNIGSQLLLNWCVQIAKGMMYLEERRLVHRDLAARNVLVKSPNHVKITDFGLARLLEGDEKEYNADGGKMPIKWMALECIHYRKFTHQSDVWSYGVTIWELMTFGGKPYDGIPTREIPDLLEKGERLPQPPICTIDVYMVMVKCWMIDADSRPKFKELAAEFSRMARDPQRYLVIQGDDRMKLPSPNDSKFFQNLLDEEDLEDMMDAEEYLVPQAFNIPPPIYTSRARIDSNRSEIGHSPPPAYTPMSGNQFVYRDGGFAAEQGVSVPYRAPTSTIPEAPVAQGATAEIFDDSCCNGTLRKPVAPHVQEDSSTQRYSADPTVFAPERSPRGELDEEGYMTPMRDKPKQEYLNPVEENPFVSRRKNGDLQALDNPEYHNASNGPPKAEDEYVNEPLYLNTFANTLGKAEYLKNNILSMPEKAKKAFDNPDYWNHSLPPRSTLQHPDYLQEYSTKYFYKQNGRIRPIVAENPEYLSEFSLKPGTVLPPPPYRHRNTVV

O=c1nc(-c2ccccn2)sc2ccccc12 [BTZO-1]
inactive: residual activity [1] 83% | residual activity [2] 84% | residual activity [3] 100% | residual activity [4] 100% | residual activity [5] 100% | residual activity [6] 94% | residual activity [7] 99% | residual activity [8] 99% | residual activity [9] 74% | residual activity [10] 100% | residual activity [11] 100% | residual activity [12] 100% | residual activity [13] 61% | residual activity [14] 96% | residual activity [15] 98% | residual activity [16] 82% | residual activity [17] 100% | residual activity [18] 76% | residual activity [19] 83% | residual activity [20] 100% | residual activity [21] 100% | residual activity [22] 92% | residual activity [23] 90% | residual activity [24] 82% | residual activity [25] 83% | residual activity [26] 89% | residual activity [27] 91% | residual activity [28] 100% | residual activity [29] 94% | residual activity [30] 100% | residual activity [31] 84% | residual activity [32] 86% | residual activity [33] 94% | residual activity [34] 100% | residual activity [35] 54% | residual activity [36] 98% | residual activity [37] 100% | residual activity [38] 83% | residual activity [39] 97% | residual activity [40] 78% | residual activity [41] 99% | residual activity [42] 100% | residual activity [43] 87% | inhibition [44] -0.363% | inhibition [45] -3.83%

O=C1NC(c2ccccn2)Sc2ccccc21 (stereo not given) [BTZO-4]
inactive: residual activity [1] 69% | residual activity [2] 89% | residual activity [3] 100% | residual activity [4] 95% | residual activity [5] 100% | residual activity [6] 100% | residual activity [7] 100% | residual activity [8] 98% | residual activity [9] 88% | residual activity [10] 100% | residual activity [11] 100% | residual activity [12] 71% | residual activity [13] 78% | residual activity [14] 77% | residual activity [15] 92% | residual activity [16] 73% | residual activity [17] 100% | residual activity [18] 80% | residual activity [19] 86% | residual activity [20] 100% | residual activity [21] 88% | residual activity [22] 79% | residual activity [23] 100% | residual activity [24] 81% | residual activity [25] 72% | residual activity [26] 82% | residual activity [27] 84% | residual activity [28] 100% | residual activity [29] 100% | residual activity [30] 90% | residual activity [31] 83% | residual activity [32] 84% | residual activity [33] 67% | residual activity [34] 100% | residual activity [35] 51% | residual activity [36] 100% | residual activity [37] 100% | residual activity [38] 81% | residual activity [39] 75% | residual activity [40] 99% | residual activity [41] 100% | residual activity [42] 88% | residual activity [43] 100% | inhibition [44] 28.7% | inhibition [45] -2.05%
